Laboratory results from ChEMBL document CHEMBL1201862, “PubChem BioAssay data set” (2004).
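In this assay, cells in 96-well plates receive the compound at five concentrations for 48 hours. Endpoints are linearly interpolated between the surrounding concentrations. The concentration for 50% growth inhibition is given as GI50.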 Activity calls are given as the source filed them. Rule as the data show it: active = GI50 up to about 1.1 µM and inactive = higher.

Key:
Experiment in all cases: growth of human tumour cells (NCI), 48 h
UO-31 = tested on: UO-31
SN12C = tested on: SN12C
CCRF-CEM = tested on: CCRF-CEM
OVCAR-4 = tested on: OVCAR-4
KM12 = tested on: KM12
Malme-3M = tested on: Malme-3M
HCC 2998 = tested on: HCC 2998
SF-295 = tested on: SF-295
EKVX = tested on: EKVX
HCT-116 = tested on: HCT-116
HT-29 = tested on: HT-29
786-0 = tested on: 786-0
NCI-H460 = tested on: NCI-H460
CAKI-1 = tested on: CAKI-1
IGROV-1 = tested on: IGROV-1
OVCAR-3 = tested on: OVCAR-3
UACC-62 = tested on: UACC-62
SNB-19 = tested on: SNB-19
U-251 = tested on: U-251
HL-60 = tested on: HL-60
M14 = tested on: M14
LOX IMVI = tested on: LOX IMVI
COLO 205 = tested on: COLO 205
RPMI-8226 = tested on: RPMI-8226
SF-268 = tested on: SF-268
OVCAR-5 = tested on: OVCAR-5
UACC-257 = tested on: UACC-257
DLD-1 = tested on: DLD-1
ACHN = tested on: ACHN
OVCAR-8 = tested on: OVCAR-8
HCT-15 = tested on: HCT-15
SK-MEL-5 = tested on: SK-MEL-5
SW-620 = tested on: SW-620
HOP-92 = tested on: HOP-92
NCI-H226 = tested on: NCI-H226
DMS-273 = tested on: DMS-273
SK-MEL-2 = tested on: SK-MEL-2
RXF 393 = tested on: RXF 393
SF-539 = tested on: SF-539
XF498 = tested on: XF498
M19-MEL = tested on: M19-MEL
MOLT-4 = tested on: MOLT-4
SNB-78 = tested on: SNB-78
A549 = tested on: A549
LXFL 529 = tested on: LXFL 529
A498 = tested on: A498
K562 = tested on: K562
KM-20L2 = tested on: KM-20L2
SNB-75 = tested on: SNB-75
NCI-H522 = tested on: NCI-H522
HOP-62 = tested on: HOP-62
SK-MEL-28 = tested on: SK-MEL-28
HOP-18 = tested on: HOP-18
SR = tested on: SR
SK-OV-3 = tested on: SK-OV-3
TK-10 = tested on: TK-10
NCI-H23 = tested on: NCI-H23

Q: Which GI50 (UO-31) does the source give for `CCOC1=NC(=O)CC(c2ccccc2)S1` (centres undefined) here?
A: > 100 µM (inactive)

Q: And the GI50 (SN12C)?
A: > 100 µM (inactive)

Q: What about the GI50 (CCRF-CEM) of the same molecule?
A: 69.3 µM (inactive)

Q: And the GI50 (OVCAR-4)?
A: > 100 µM (inactive)

Q: What about the GI50 (KM12) of the same molecule?
A: > 100 µM (inactive)

Q: And the GI50 (Malme-3M)?
A: > 100 µM (inactive)

Q: And the GI50 (HCC 2998)?
A: > 100 µM (inactive)

Q: And the GI50 (SF-295)?
A: > 100 µM (inactive)

Q: What about the GI50 (EKVX) of the same molecule?
A: > 100 µM (inactive)

Q: And the GI50 (HCT-116)?
A: > 100 µM (inactive)

Q: What about the GI50 (HT-29) of the same molecule?
A: > 100 µM (inactive)

Q: What about the GI50 (786-0) of the same molecule?
A: > 100 µM (inactive)

Q: And the GI50 (NCI-H460)?
A: > 100 µM (inactive)

Q: And the GI50 (CAKI-1)?
A: > 100 µM (inactive)

Q: What about the GI50 (IGROV-1) of the same molecule?
A: > 100 µM (inactive)

Q: What about the GI50 (OVCAR-3) of the same molecule?
A: > 100 µM (inactive)

Q: What about the GI50 (UACC-62) of the same molecule?
A: > 100 µM (inactive)

Q: What about the GI50 (SNB-19) of the same molecule?
A: > 100 µM (inactive)

Q: And the GI50 (U-251)?
A: 49.2 µM (inactive)

Q: What about the GI50 (HL-60) of the same molecule?
A: > 100 µM (inactive)

Q: And the GI50 (M14)?
A: 68.1 µM (inactive)

Q: What about the GI50 (LOX IMVI) of the same molecule?
A: > 100 µM (inactive)

Q: What about the GI50 (COLO 205) of the same molecule?
A: > 100 µM (inactive)

Q: And the GI50 (RPMI-8226)?
A: > 100 µM (inactive)

Q: And the GI50 (SF-268)?
A: > 100 µM (inactive)

Q: What about the GI50 (OVCAR-5) of the same molecule?
A: > 100 µM (inactive)

Q: What about the GI50 (UACC-257) of the same molecule?
A: > 100 µM (inactive)

Q: And the GI50 (DLD-1)?
A: 95.5 µM (inactive)

Q: What about the GI50 (ACHN) of the same molecule?
A: > 100 µM (inactive)

Q: And the GI50 (OVCAR-8)?
A: > 100 µM (inactive)

Q: What about the GI50 (HCT-15) of the same molecule?
A: > 100 µM

Q: What about the GI50 (SK-MEL-5) of the same molecule?
A: > 100 µM (inactive)

Q: And the GI50 (SW-620)?
A: > 100 µM (inactive)

Q: What about the GI50 (HOP-92) of the same molecule?
A: > 100 µM (inactive)

Q: What about the GI50 (NCI-H226) of the same molecule?
A: 27.8 µM (inactive)

Q: And the GI50 (DMS-273)?
A: > 100 µM (inactive)

Q: And the GI50 (SK-MEL-2)?
A: > 100 µM (inactive)

Q: What about the GI50 (RXF 393) of the same molecule?
A: 36.4 µM (inactive)

Q: And the GI50 (SF-539)?
A: > 100 µM (inactive)

Q: What about the GI50 (XF498) of the same molecule?
A: > 100 µM (inactive)

Q: What about the GI50 (M19-MEL) of the same molecule?
A: > 100 µM (inactive)

Q: And the GI50 (MOLT-4)?
A: > 100 µM (inactive)

Q: What about the GI50 (SNB-78) of the same molecule?
A: > 100 µM (inactive)

Q: What about the GI50 (A549) of the same molecule?
A: > 100 µM (inactive)

Q: What about the GI50 (LXFL 529) of the same molecule?
A: > 100 µM (inactive)

Q: What about the GI50 (A498) of the same molecule?
A: > 100 µM (inactive)

Q: What about the GI50 (K562) of the same molecule?
A: > 100 µM (inactive)

Q: What about the GI50 (KM-20L2) of the same molecule?
A: > 100 µM (inactive)

Q: How did the GI50 (UO-31) turn out when `CCC(C)(O)c1cn(-c2ccc(Cl)cc2)nn1` (centres undefined) was run?
A: > 100 µM (inactive)

Q: What about the GI50 (SN12C) of the same molecule?
A: > 100 µM (inactive)

Q: And the GI50 (CCRF-CEM)?
A: > 100 µM (inactive)

Q: And the GI50 (OVCAR-4)?
A: > 100 µM (inactive)

Q: And the GI50 (KM12)?
A: > 100 µM (inactive)

Q: And the GI50 (Malme-3M)?
A: > 100 µM (inactive)

Q: And the GI50 (HCC 2998)?
A: > 100 µM (inactive)

Q: And the GI50 (SF-295)?
A: > 100 µM (inactive)

Q: What about the GI50 (EKVX) of the same molecule?
A: > 100 µM (inactive)

Q: And the GI50 (HCT-116)?
A: > 100 µM (inactive)

Q: And the GI50 (HT-29)?
A: > 100 µM (inactive)

Q: And the GI50 (786-0)?
A: > 100 µM (inactive)

Q: And the GI50 (NCI-H460)?
A: > 100 µM (inactive)

Q: And the GI50 (CAKI-1)?
A: > 100 µM (inactive)

Q: What about the GI50 (IGROV-1) of the same molecule?
A: > 100 µM (inactive)

Q: And the GI50 (OVCAR-3)?
A: > 100 µM (inactive)

Q: What about the GI50 (UACC-62) of the same molecule?
A: > 100 µM (inactive)

Q: And the GI50 (SNB-19)?
A: > 100 µM (inactive)

Q: And the GI50 (SNB-75)?
A: > 100 µM (inactive)

Q: And the GI50 (U-251)?
A: > 100 µM (inactive)

Q: What about the GI50 (NCI-H522) of the same molecule?
A: > 100 µM (inactive)

Q: What about the GI50 (HL-60) of the same molecule?
A: > 100 µM (inactive)

Q: What about the GI50 (M14) of the same molecule?
A: > 100 µM (inactive)

Q: And the GI50 (HOP-62)?
A: > 100 µM (inactive)

Q: What about the GI50 (SK-MEL-28) of the same molecule?
A: > 100 µM (inactive)

Q: What about the GI50 (LOX IMVI) of the same molecule?
A: > 100 µM (inactive)

Q: What about the GI50 (COLO 205) of the same molecule?
A: > 100 µM (inactive)

Q: What about the GI50 (HOP-18) of the same molecule?
A: > 100 µM (inactive)

Q: What about the GI50 (RPMI-8226) of the same molecule?
A: > 100 µM (inactive)

Q: What about the GI50 (SF-268) of the same molecule?
A: > 100 µM (inactive)

Q: And the GI50 (SR)?
A: > 100 µM (inactive)

Q: What about the GI50 (OVCAR-5) of the same molecule?
A: > 100 µM (inactive)

Q: And the GI50 (UACC-257)?
A: > 100 µM (inactive)

Q: What about the GI50 (DLD-1) of the same molecule?
A: > 100 µM (inactive)

Q: What about the GI50 (SK-OV-3) of the same molecule?
A: > 100 µM (inactive)

Q: And the GI50 (ACHN)?
A: > 100 µM (inactive)

Q: And the GI50 (OVCAR-8)?
A: > 100 µM (inactive)

Q: What about the GI50 (HCT-15) of the same molecule?
A: > 100 µM

Q: What about the GI50 (SK-MEL-5) of the same molecule?
A: > 100 µM (inactive)

Q: What about the GI50 (SW-620) of the same molecule?
A: > 100 µM (inactive)

Q: And the GI50 (HOP-92)?
A: > 100 µM (inactive)

Q: And the GI50 (NCI-H226)?
A: > 100 µM (inactive)

Q: What about the GI50 (DMS-273) of the same molecule?
A: > 100 µM (inactive)

Q: What about the GI50 (SK-MEL-2) of the same molecule?
A: > 100 µM (inactive)

Q: And the GI50 (RXF 393)?
A: > 100 µM (inactive)

Q: And the GI50 (SF-539)?
A: > 100 µM (inactive)

Q: And the GI50 (M19-MEL)?
A: > 100 µM (inactive)

Q: And the GI50 (MOLT-4)?
A: > 100 µM (inactive)

Q: What about the GI50 (TK-10) of the same molecule?
A: > 100 µM (inactive)

Q: And the GI50 (SNB-78)?
A: > 100 µM (inactive)

Q: What about the GI50 (A549) of the same molecule?
A: > 100 µM (inactive)

Q: And the GI50 (NCI-H23)?
A: > 100 µM (inactive)

Q: And the GI50 (LXFL 529)?
A: > 100 µM (inactive)

Q: What about the GI50 (A498) of the same molecule?
A: > 100 µM (inactive)

Q: And the GI50 (K562)?
A: > 100 µM (inactive)

Q: And the GI50 (KM-20L2)?
A: > 100 µM (inactive)
